The source of these data is patent US20110280815A1, “COMPOSITION FOR INHIBITING MELANIN PRODUCTION AND APPLICATION THEREOF” (priority 2010, published 2011).

Where two headings read alike, the source gives them in different places.

For one test, the system named is tyrosinase. Nature of the test: Inhibiting tyrosinase (L-Dopa oxidation, dopachrome absorption at 492 nm). The test is classed as biochemical. The following applies: series diluted sample, 0.1 U tyrosinase, 1 mM L-Dopa, 37° C., compared with blank control group (FIG. 1). The method, then:
In this example, 90 μL of 0.1 U tyrosinase solution was added in to the wells of a 96-well plate. Then, 50 μL of a series diluted sample was added into the wells as an experimental group or as a blank control group, wherein said sample is MOPS, SB-12(N-Dodecyl-N,N-dimethyl-3-ammonio-1-propanesulfonate), ACES or Tris-HCl, and 0.1 M phosphate buffer and a substance lysis solution were used as blank tests for the experimental group and the blank control group, respectively. Each sample in the experiment was at least triplicated. The test plate was placed at 37° C., 400 rpm for 5 min to mix the contents thereof homogeneously. Then, the test plate was placed into a machine for an absorption examination (492 nm). An average of two detected data was obtained as a background value. The test plate was then taken out, and 60 μL of 1 mM L-Dopa solution was added into each well. […] At this time, an average of two detected data was obtained as a test value.
In example 1, by using the tyrosinase inhibitor of the present invention, tyrosinase was inhibited to prevent melanin production. […] Accordingly, in this example, the absorption of the reaction at 492 nm was detected for examining the production of dopaquinone.
The data in the figure was calculated by the following formula: […]

For test [1], the system named is human epidermal melanocyte (HEM). In words: Inhibiting melanin in cell line model, human epidermal melanocyte (HEM). It counts as cell-based. The following applies: 200 μg/mL in medium, 72 hours, compared with blank control group (FIG. 5). The procedure: (§1) In this example, the tyrosinase inhibitor of the present invention was used to inhibit melanin production in melanocytes. The cell lines used in this example are mouse melanoma (B16-F1; ATCC CRL-6323) and human epidermal melanocyte (HEM). After 72 hours, cells and cell culture medium were collected separately. Then, the collected cells were destroyed by ultrasonic for melanin examination.

In another test the test system is B16-F1 cells. In words: Inhibiting melanin in cell line model, mouse melanoma B16-F1. The test is classed as cell-based. The following applies: for inhibition of melanin production of mouse melanoma (microscopic image): 200 μg/ml, cultured 72 hours (FIG. 2); for inhibition at 200 µg/mL: Mus musculus, B16-F1, 200 μg/mL in medium. The method, then: as §1
The mark [2] stands for this setting: 72 hours (FIG. 3), read-out: ability of inhibiting melanin production of B16-F1 cells.
Setting [3] is: 72 hours, cell culture medium (FIG. 4), read-out: ability of inhibiting melanin secretion of B16-F1 cells.

As to `O=S(=O)(O)CCCN1CCOCC1` [MOPS, 3-(N-Morpholino) propanesulfonic acid], the “inhibition of tyrosinase activity” value in the test with tyrosinase is on record as “significantly inhibit the activity of tyrosinase”. Besides, in test [1], the “inhibition rate of melanin production of human epidermal melanocyte” value is “inhibition rate was increased”. For the same compound, the “inhibition of melanin production of mouse melanoma (microscopic image)” value in the test with B16-F1 cells was “significantly inhibit”. In addition, the inhibition at 200 µg/mL worked out at 41.7% in the test with B16-F1 cells (setting [2]) and 42.3% in the test with B16-F1 cells (setting [3]).

As to `NC(=O)CNCCS(=O)(=O)O` [ACES, N-(2-Acetamido)-2-aminoethanesulfonic acid], in the test on tyrosinase, the “inhibition of tyrosinase activity” value is given as “significantly inhibit the activity of tyrosinase”. In addition, in test [1], the “inhibition rate of melanin production of human epidermal melanocyte” value is “inhibition rate was increased”. Besides, the “inhibition of melanin production of mouse melanoma (microscopic image)” value in the test on B16-F1 cells was “significantly inhibit”. Also, the figures for the inhibition at 200 µg/mL with B16-F1 cells (setting [2]) and in the test with B16-F1 cells (setting [3]) were 35% and 38.9%, respectively.
